{
  "source": "ChEMBL document CHEMBL1275354",
  "about": "“Anticonvulsant activity of 2,4(1H)-diarylimidazoles in mice and rats acute seizure models” (Bioorg Med Chem, 2010)",
  "key": {"[1]": {"system": "Mus musculus", "assay": "Neurotoxicity in ip dosed albino CF1 mouse assessed as minimum dose required to cause toxicity after 0.5 hrs by rotarod test", "format": "organism-based", "details": "in vivo"}, "[2]": {"system": "Mus musculus", "assay": "Anticonvulsant activity in albino CF1 mouse assessed as protection against maximal electroshock-induced seizures at 3 mg/kg, ip after 0.5 hrs", "format": "functional, organism-based", "design": "dose 3 mg/kg"}, "[3]": {"system": "Mus musculus", "assay": "Neurotoxicity in albino CF1 mouse assessed as minimal motor impairment at 30 mg/kg, ip after 0.5 hrs by rotarod test", "format": "toxicity, organism-based", "design": "dose 30 mg/kg, route intraperitoneal", "details": "in vivo"}, "[4]": {"system": "Mus musculus", "assay": "Anticonvulsant activity against subcutaneous metrazole-induced seizures in ip dosed albino CF1 mouse assessed as minimum effective dose after 4 hrs", "format": "functional", "details": "albino CF1, 4 h, read-out: MED"}, "[5]": {"system": "Mus musculus", "assay": "Anticonvulsant activity in albino CF1 mouse assessed as protection against maximal electroshock-induced seizures at 10 mg/kg, ip after 0.5 hrs", "format": "functional, organism-based", "design": "dose 10 mg/kg"}, "[6]": {"system": "Mus musculus", "assay": "Neurotoxicity in albino CF1 mouse assessed as minimal motor impairment at 3 mg/kg, ip after 0.5 hrs by rotarod test", "format": "toxicity, organism-based", "design": "dose 3 mg/kg, route intraperitoneal", "details": "in vivo"}, "[7]": {"system": "Mus musculus", "assay": "Neurotoxicity in albino CF1 mouse assessed as minimal motor impairment at 10 mg/kg, ip after 0.5 hrs by rotarod test", "format": "toxicity, organism-based", "design": "dose 10 mg/kg, route intraperitoneal", "details": "in vivo"}, "[8]": {"system": "Mus musculus", "assay": "Neurotoxicity in albino CF1 mouse assessed as minimal motor impairment at 30 mg/kg, ip after 4 hrs by rotarod test", "format": "toxicity, organism-based", "design": "dose 30 mg/kg, route intraperitoneal", "details": "in vivo"}, "[9]": {"system": "Mus musculus", "assay": "Neurotoxicity in albino CF1 mouse assessed as minimal motor impairment at 100 mg/kg, ip after 4 hrs by rotarod test", "format": "toxicity, organism-based", "design": "dose 100 mg/kg, route intraperitoneal", "details": "in vivo"}, "[10]": {"system": "Mus musculus", "assay": "Anticonvulsant activity in albino CF1 mouse assessed as protection against maximal electroshock-induced seizures at 300 mg/kg, ip after 0.5 hrs", "format": "functional, organism-based", "design": "dose 300 mg/kg"}, "[11]": {"system": "Mus musculus", "assay": "Anticonvulsant activity in albino CF1 mouse assessed as protection against maximal electroshock-induced seizures at 300 mg/kg, ip after 4 hrs", "format": "functional, organism-based", "design": "dose 300 mg/kg"}, "[12]": {"system": "Mus musculus", "assay": "Anticonvulsant activity in albino CF1 mouse assessed as protection against subcutaneous metrazole-induced seizures at 30 mg/kg, ip after 0.5 hrs", "format": "functional, organism-based", "design": "dose 30 mg/kg"}, "[13]": {"system": "Mus musculus", "assay": "Anticonvulsant activity in albino CF1 mouse assessed as protection against subcutaneous metrazole-induced seizures at 30 mg/kg, ip after 4 hrs", "format": "functional, organism-based", "design": "dose 30 mg/kg"}, "[14]": {"system": "Mus musculus", "assay": "Anticonvulsant activity in albino CF1 mouse assessed as protection against subcutaneous metrazole-induced seizures at 100 mg/kg, ip after 0.5 hrs", "format": "functional, organism-based", "design": "dose 100 mg/kg"}, "[15]": {"system": "Mus musculus", "assay": "Anticonvulsant activity in albino CF1 mouse assessed as protection against subcutaneous metrazole-induced seizures at 100 mg/kg, ip after 4 hrs", "format": "functional, organism-based", "design": "dose 100 mg/kg"}, "[16]": {"system": "Mus musculus", "assay": "Anticonvulsant activity in albino CF1 mouse assessed as protection against subcutaneous metrazole-induced seizures at 300 mg/kg, ip after 0.5 hrs", "format": "functional, organism-based", "design": "dose 300 mg/kg"}, "[17]": {"system": "Mus musculus", "assay": "Anticonvulsant activity in albino CF1 mouse assessed as protection against subcutaneous metrazole-induced seizures at 300 mg/kg, ip after 4 hrs", "format": "functional, organism-based", "design": "dose 300 mg/kg"}, "[18]": {"system": "Mus musculus", "assay": "Anticonvulsant activity in albino CF1 mouse assessed as protection against maximal electroshock-induced seizures at 30 mg/kg, ip after 0.5 hrs", "format": "functional, organism-based", "design": "dose 30 mg/kg"}, "[19]": {"system": "Mus musculus", "assay": "Anticonvulsant activity in albino CF1 mouse assessed as protection against maximal electroshock-induced seizures at 30 mg/kg, ip after 4 hrs", "format": "functional, organism-based", "design": "dose 30 mg/kg"}, "[20]": {"system": "Mus musculus", "assay": "Neurotoxicity in ip dosed albino CF1 mouse assessed as minimum dose required to cause toxicity after 4 hrs by rotarod test", "format": "organism-based", "details": "in vivo"}, "[21]": {"system": "Mus musculus", "assay": "Anticonvulsant activity against maximal electroshock-induced seizures in ip dosed albino CF1 mouse assessed as minimum effective dose after 0.5 hrs", "format": "functional", "details": "read-out: MED"}, "[22]": {"system": "Mus musculus", "assay": "Anticonvulsant activity against maximal electroshock-induced seizures in ip dosed albino CF1 mouse assessed as minimum effective dose after 4 hrs", "format": "functional", "details": "read-out: MED"}, "[23]": {"system": "Mus musculus", "assay": "Anticonvulsant activity against subcutaneous metrazole-induced seizures in ip dosed albino CF1 mouse assessed as minimum effective dose after 0.5 hrs", "format": "functional", "details": "albino CF1, 0.5 h, read-out: MED"}, "[24]": {"system": "Mus musculus", "assay": "Neurotoxicity in albino CF1 mouse assessed as minimal motor impairment at 30 to 300 mg/kg, ip after 4 hrs by rotarod test", "details": "in vivo"}, "[25]": {"system": "Mus musculus", "assay": "Neurotoxicity in albino CF1 mouse assessed as minimal motor impairment at 30 to 300 mg/kg, ip after 0.5 hrs by rotarod test", "details": "in vivo"}},
  "note": "Calls of active or inactive are those of the source. No cut-off for these calls is given here.",
  "data": [
    {"smiles": "FC(F)(F)c1cccc(-c2c[nH]c(-c3ccccc3)n2)c1", "values": [
      {"measurement": "MED", "setting": "[1]", "result": 100, "unit": "mg/kg"},
      {"measurement": "Activity", "setting": "[2]", "result": "inactive"},
      {"measurement": "Activity", "setting": "[3]", "result": "Non-toxic"},
      {"measurement": "minimal effective dose", "setting": "[4]", "result": "> 300", "unit": "mg/kg"},
      {"measurement": "Activity", "setting": "[5]", "result": "inactive"},
      {"measurement": "Activity", "setting": "[6]", "result": "Non-toxic"},
      {"measurement": "Activity", "setting": "[7]", "result": "Non-toxic"},
      {"measurement": "Activity", "setting": "[8]", "result": "Non-toxic"},
      {"measurement": "Activity", "setting": "[9]", "result": "Non-toxic"},
      {"measurement": "Activity", "setting": "[10]", "result": "Active"},
      {"measurement": "Activity", "setting": "[11]", "result": "Active"},
      {"measurement": "Activity", "setting": "[12]", "result": "inactive"},
      {"measurement": "Activity", "setting": "[13]", "result": "inactive"},
      {"measurement": "Activity", "setting": "[14]", "result": "inactive"},
      {"measurement": "Activity", "setting": "[15]", "result": "inactive"},
      {"measurement": "Activity", "setting": "[16]", "result": "inactive"},
      {"measurement": "Activity", "setting": "[17]", "result": "inactive"},
      {"measurement": "Activity", "setting": "[18]", "result": "Active"},
      {"measurement": "Activity", "setting": "[19]", "result": "inactive"},
      {"measurement": "MED", "setting": "[20]", "result": 100, "unit": "mg/kg"},
      {"measurement": "minimal effective dose", "setting": "[21]", "result": "> 30", "unit": "mg/kg"},
      {"measurement": "minimal effective dose", "setting": "[22]", "result": 100, "unit": "mg/kg"},
      {"measurement": "minimal effective dose", "setting": "[23]", "result": "> 300", "unit": "mg/kg"},
      {"measurement": "Activity", "setting": "[24]", "result": "Non-toxic"},
      {"measurement": "Activity", "setting": "[25]", "result": "Non-toxic"}
    ]}
  ]
}
